For data set [1], the target named is Cytochrome P450 2C19 (Homo sapiens, UniProt P33261). The data set can be described thus: Cytochrome panel assay with activity outcomes. Panel member name: p450-cyp2c19 Compounds with AC50 equal or less than 10 uM are considered active. It is filed as functional.
Data set [2] has as its target T1, Cytochrome P450 1A2 (Homo sapiens, UniProt P05177).
T1 sequence (P05177 whole entry): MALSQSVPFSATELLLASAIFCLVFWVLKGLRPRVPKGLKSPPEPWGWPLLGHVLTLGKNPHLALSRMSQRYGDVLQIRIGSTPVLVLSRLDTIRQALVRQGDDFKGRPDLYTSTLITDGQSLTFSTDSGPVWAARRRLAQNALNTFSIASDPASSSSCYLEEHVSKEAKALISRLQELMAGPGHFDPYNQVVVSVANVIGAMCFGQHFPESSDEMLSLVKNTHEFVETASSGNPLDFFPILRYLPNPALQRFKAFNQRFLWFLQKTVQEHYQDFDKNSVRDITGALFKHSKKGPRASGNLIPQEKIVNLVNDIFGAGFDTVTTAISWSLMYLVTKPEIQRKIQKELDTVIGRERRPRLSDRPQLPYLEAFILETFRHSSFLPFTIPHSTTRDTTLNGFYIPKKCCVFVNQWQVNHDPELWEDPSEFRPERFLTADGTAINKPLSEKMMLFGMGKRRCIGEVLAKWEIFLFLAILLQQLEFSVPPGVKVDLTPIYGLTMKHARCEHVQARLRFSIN

Data set [3] concerns the target Cytochrome P450 3A4 (Homo sapiens, UniProt P08684).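 Note: CYP3A4 tested as one member of a cytochrome P450 panel screen.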
Data set [4] has as its target Cytochrome P450 2C9 (Homo sapiens, UniProt P11712).
Data set [5] in a line: inhibitors of intracellular T. cruzi replication, confirmation, NIH3T3 host cells, beta-gal luminescence (AID 2044).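 Note: intracellular parasites grown in NIH/3T3 mouse fibroblasts as host cells; luminescent beta-galactosidase reporter signal from transgenic T. cruzi replicating inside host cells; inhibitors lower the luminescence signal.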 In kind it is functional, cell-based.
Data set [6] in a line: cytotoxicity toward NIH3T3 fibroblasts, dose response, counter-screen, cell-based, ATP luminescence, mouse fibroblasts (AID 2010).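 Note: cells exposed to compound for about 90 hours before reading.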 It is filed as functional. (The purpose of a counterscreen is to sort out artefacts and off-target activity.)

Calls of active or inactive are those of the source.

Chain of Cytochrome P450 3A4 (P08684 whole entry): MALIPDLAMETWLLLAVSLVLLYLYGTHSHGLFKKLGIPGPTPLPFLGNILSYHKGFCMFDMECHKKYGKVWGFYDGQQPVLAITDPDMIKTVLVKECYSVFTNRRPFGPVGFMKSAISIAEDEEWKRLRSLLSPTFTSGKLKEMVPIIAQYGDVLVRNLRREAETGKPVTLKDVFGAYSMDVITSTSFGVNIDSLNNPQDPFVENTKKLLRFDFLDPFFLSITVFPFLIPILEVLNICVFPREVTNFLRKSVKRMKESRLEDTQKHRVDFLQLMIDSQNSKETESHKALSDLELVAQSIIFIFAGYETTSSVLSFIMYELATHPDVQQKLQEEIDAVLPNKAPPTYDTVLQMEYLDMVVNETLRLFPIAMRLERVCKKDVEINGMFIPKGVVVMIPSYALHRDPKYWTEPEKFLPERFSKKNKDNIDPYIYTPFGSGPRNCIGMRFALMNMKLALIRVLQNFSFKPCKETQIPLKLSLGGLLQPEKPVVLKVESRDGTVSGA
Chain of Cytochrome P450 2C9 (P11712 whole entry): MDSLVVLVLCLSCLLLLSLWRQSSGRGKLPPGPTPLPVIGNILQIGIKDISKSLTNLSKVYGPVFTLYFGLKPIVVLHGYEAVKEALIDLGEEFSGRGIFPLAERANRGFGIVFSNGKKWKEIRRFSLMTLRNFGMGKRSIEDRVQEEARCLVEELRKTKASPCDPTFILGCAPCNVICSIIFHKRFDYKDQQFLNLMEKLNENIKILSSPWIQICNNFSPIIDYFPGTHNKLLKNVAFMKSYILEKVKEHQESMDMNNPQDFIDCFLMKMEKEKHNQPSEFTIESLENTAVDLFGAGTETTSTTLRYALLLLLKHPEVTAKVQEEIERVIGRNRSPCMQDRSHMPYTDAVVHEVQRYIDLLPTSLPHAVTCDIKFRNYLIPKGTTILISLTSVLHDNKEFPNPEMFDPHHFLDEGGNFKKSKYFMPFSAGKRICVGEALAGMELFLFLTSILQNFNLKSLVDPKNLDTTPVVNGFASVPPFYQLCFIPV
Chain of Cytochrome P450 2C19 (P33261 whole entry): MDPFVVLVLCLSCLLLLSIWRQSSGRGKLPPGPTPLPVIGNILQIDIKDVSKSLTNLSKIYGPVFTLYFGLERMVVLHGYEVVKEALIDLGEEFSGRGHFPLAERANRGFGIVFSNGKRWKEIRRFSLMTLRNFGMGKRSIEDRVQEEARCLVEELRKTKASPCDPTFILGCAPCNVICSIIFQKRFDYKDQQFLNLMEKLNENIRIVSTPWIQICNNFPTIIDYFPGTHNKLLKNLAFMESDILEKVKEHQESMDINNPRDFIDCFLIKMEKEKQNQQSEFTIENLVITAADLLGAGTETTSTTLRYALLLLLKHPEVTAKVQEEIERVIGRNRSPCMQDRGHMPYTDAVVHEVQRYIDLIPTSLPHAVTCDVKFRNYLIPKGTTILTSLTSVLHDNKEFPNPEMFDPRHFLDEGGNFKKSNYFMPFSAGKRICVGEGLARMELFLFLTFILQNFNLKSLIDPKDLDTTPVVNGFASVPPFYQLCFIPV

As for `CO[C@@H]1COC(=O)[C@@H](CCSC)NC(=O)C/C=C\[C@@H](C)COC(=O)[C@H](C)NC(=O)C/C=C\[C@H]1C`, the AC50 (commonly the concentration giving half of the maximal activity seen) in data set [1] was “inconclusive”.

For `C[C@@H](C(=O)NCCc1c[nH]c2ccccc12)[C@H]1C[C@]1(C)[C@H](NC(=O)OCc1ccccc1)c1ccccc1`, in data set [2], the AC50 is 15.8 µM (inconclusive).

Turning to `COc1ccc(-n2c(=O)c(-c3ccc(F)c(F)c3)nc3cncnc32)cc1`, the AC50 is 2.51 µM (inconclusive) in data set [2] and 12.6 µM (inconclusive) in data set [3].

As for `Cc1cccc(-c2noc(-c3cc4ccccc4oc3=O)n2)c1`, in data set [1] (read-out: AC50), the AC50 is 0.562 µM (inconclusive).

For `COc1ncc2nc(-c3ccc(Cl)cc3)c(=O)n(C[C@H]3CCCO3)c2n1`, the AC50 in data set [4] was 25.1 µM (inconclusive).

Consider `COc1cccc(N2C(C(C)=O)=NN(c3ccccc3)C2c2ccc(N3CCOCC3)cc2)c1` (centres undefined), for which the EC50 (as a rule, the concentration giving half of the maximal effect) is 1.49 µM (active) in data set [5] and > 30 µM (not active) in data set [6].

As to `CCOc1c(OC(C)=O)ccc(/C=C2\N=C(SCC)SC2=O)c1[N+](=O)[O-]`, the AC50 in data set [3] was 39.8 µM (inconclusive).

Consider `COc1cc(OC)nc(NC(C)=O)n1`, for which the AC50 in data set [2] is 28.2 µM (inconclusive).

In the case of `Cc1ccc2ccccc2c1CSc1nc(N)nc2c1ncn2CC(C)C`, the AC50 in data set [4] was 7.94 µM (inconclusive).

Consider `Cc1nnc(O)nc1NCc1ccccc1Cl`, for which the AC50 in data set [3] is 39.8 µM (inconclusive).

In the case of `Clc1ccc(SCc2cc(-c3ccccc3)no2)cc1`, in data set [4], the AC50 was 4.47 µM (inconclusive).

Consider `Cc1ccccc1NC(=S)NC(=O)c1cc(-c2ccccc2)nc2ccccc12`, for which, in data set [3], the AC50 is 3.16 µM (inconclusive).

On to `Cc1ccc(C)c(Oc2ccc(S(=O)(=O)N3CCN(C)CC3)cn2)c1`, for which the results for the EC50 in data set [5] and in data set [6] were 1.14 µM (active) and > 60 µM (not active), respectively.

For the compound `COCCNc1ccnc(-c2ccccc2C)n1`, the AC50 in data set [1] (read-out: AC50) was 15.8 µM (inconclusive).

In the case of `CCCC[C@]1(C2CCCC2)Cc2cc(OCC(=O)O)c(Cl)c(Cl)c2C1=O`, in data set [3], the AC50 is 10 µM (inconclusive).

For the compound `CC(C)c1ccccc1[S+]([O-])c1ccccc1C(C)(C)O` (centres undefined), the AC50 in data set [1] (read-out: AC50) was 3.16 µM (inconclusive); in data set [3], 3.98 µM (inconclusive).

Regarding `COC(=O)C1=CN(c2cc(C)cc(C)c2)C=C(C(=O)OC)C1c1cccc(F)c1`, the EC50 in data set [5] is 3.09 µM (active); in data set [6] it was > 60 µM (not active).

Regarding `CCOC(=O)c1c(NC(=O)COC(=O)c2ccccc2NC)sc(C(=O)N(C)C)c1C`, the figures for the EC50 in data set [5] and in data set [6] were 0.75 µM (active) and > 60 µM (not active), respectively.

With `CCOC(=O)c1ccc(Nc2nc(C(=O)OCC)nc3ccccc23)cc1`, the AC50 in data set [4] was 3.55 µM (inconclusive); in data set [3], 35.5 µM (inconclusive).

With `COC(=O)[C@@]1(Cc2ccc(F)cc2)[C@H]2c3cc(C(=O)N(C)C)n(Cc4ccc(S(C)(=O)=O)cc4)c3C[C@H]2CN1C(=O)c1ccccc1`, the AC50 in data set [4] is 15.8 µM (inconclusive); in data set [2], 25.1 µM (inconclusive).

For the compound `COc1ccc(C(=O)NCS(=O)(=O)c2ccc(C)cc2)cc1`, the AC50 in data set [2] was 15.8 µM (inconclusive).

On to `O=C(Nc1ccc(F)cc1)NC1CCN(Cc2ccccc2)CC1`, for which the EC50 in data set [5] was 0.476 µM (active); in data set [6] it was > 60 µM (not active).

For `COC(=O)[C@@H]1CC[C@H](C)[C@@H](c2ccc(C)cc2)N1C(=O)c1ccc(/C=N\OC[C@@H](O)[C@H]2O[C@H]3OC(C)(C)O[C@H]3[C@@H]2O)cc1`, in data set [3], the AC50 is 6.31 µM (inconclusive).

Turning to `CCN1CCN(c2nc(-c3ccccn3)nc3ccccc23)CC1`, the AC50 in data set [1] (read-out: AC50) is 39.8 µM (inconclusive).

With `Cc1noc(NC(=O)Nc2ccccc2F)c1C#N`, in data set [2], the AC50 is 0.794 µM (inconclusive).

For the compound `O=C(c1cc(COc2ccc(F)cc2Cl)on1)N(Cc1ccncc1)CC1CCCO1` (centres undefined), the EC50 is 0.956 µM (active) in data set [5] and > 60 µM (not active) in data set [6].

For the compound `Cn1c(=O)c2c(nc(N/N=C\c3ccccc3C(=O)O)n2C)n(C)c1=O`, the AC50 entry in data set [1] was “inconclusive”.

As for `CCCC1(C(=O)OC)C=C2C(=C(C(C)C)C(=O)C2C)CN1` (centres undefined), the figures for the AC50 in data set [4] and in data set [3] were 20 µM (inconclusive) and 12.6 µM (inconclusive), respectively.

As for `CCCC(C)C(=O)Nc1ncc(S(=O)(=O)c2ccc([N+](=O)[O-])cc2)s1` (centres undefined), the EC50 in data set [5] is 2.25 µM (active); in data set [6], > 60 µM (not active).

For the compound `O=C(CSc1ncnc2c1cnn2CCc1ccccc1)Nc1ccc(F)cc1`, the AC50 in data set [3] is 1.41 µM (inconclusive).

In the case of `CCOc1ccc2nc(NC(=O)C3CCN(c4cnccn4)CC3)sc2c1`, the EC50 is 2.48 µM (active) in data set [5] and > 60 µM (not active) in data set [6].

With `C[C@@H](c1ccccc1)N1C(=O)[C@H]2[C@H]3[C@H](O)[C@H](O)C/C(=N/OCc4ccccc4)[C@@H]3CC[C@@H]2C1=O`, the AC50 in data set [3] is 5.01 µM (inconclusive).

Take `CCN(C(S)=Nc1ccccc1F)C1CCCCC1`: the AC50 in data set [3] was 14.1 µM (inconclusive).

`CN(C)C(=O)CSC1c2ccccc2C(=O)N1c1ccccc1` (centres undefined): the AC50 in data set [4] was 35.5 µM (inconclusive); in data set [3], 15.8 µM (inconclusive).

As to `CCC(C(=O)N1CCOCC1)n1c(C(=O)OC)cc2occc21` (centres undefined), the AC50 in data set [4] is 10 µM (inconclusive); in data set [3] it was 14.1 µM (inconclusive).

For `O=C(OCc1ccccc1)/C(=C/c1ccc(Cl)cc1)NC(=O)c1ccccc1Cl`, the AC50 in data set [4] is 1.58 µM (inconclusive); in data set [1] (read-out: AC50), 0.316 µM (inconclusive).

In the case of `COc1ccc(-c2nc3cnc(N4CCOCC4)nc3n(-c3ccc(OC)cc3)c2=O)cc1`, the AC50 in data set [2] is 10 µM (inconclusive).

`N#Cc1cccc(-c2nc3cnc(N4CCOCC4)nc3n(C3CC3)c2=O)c1`: the half-maximal activity concentration (AC50) in data set [3] was 39.8 µM (inconclusive).

For `Oc1ccc(-c2nccc(-c3ccc(Cl)cc3Cl)n2)cc1`, the EC50 in data set [5] was 1.62 µM (active); in data set [6], > 60 µM (not active).

Turning to `CN1CCN(S(=O)(=O)c2cnccc2N2CCN(c3cccc(Cl)c3)CC2)CC1`, the values for the EC50 in data set [5] and in data set [6] were 1 µM (active) and > 60 µM (inconclusive), respectively.

For the compound `CCN(CC1CCCN(CCc2cccc(OC)c2)C1)C(=O)c1ccc(COC)o1` (centres undefined), the results for the EC50 in data set [5] and in data set [6] were 0.445 µM (active) and 30.9 µM (active), respectively.

With `COc1cccc(C2=NOC(C(=O)NCc3ccccc3)C2)c1` (centres undefined), in data set [3], the AC50 is 25.1 µM (inconclusive).

Take `COc1ccc(COC(=O)N/N=C2/C[C@@H](O)[C@@H](O)[C@@H]3[C@@H]4C(=O)N([C@@H](C)c5ccccc5)C(=O)[C@H]4CC[C@H]23)cc1`: in data set [3], the AC50 was 3.98 µM (inconclusive).

As to `COCCn1c(=O)c(-c2cc(F)cc(F)c2)nc2cnc(N3CCNCC3)nc21`, the AC50 in data set [3] was 20 µM (inconclusive).

Turning to `CC(C)CCNC(=O)C(c1cccnc1)N(Cc1ccccc1)C(=O)Cn1nnc2ccccc21` (centres undefined), the half-maximal effective concentration (EC50) is 0.959 µM (active) in data set [5] and > 30 µM (not active) in data set [6].

Regarding `CCN(CC)C(=O)CSc1nc(O)cc(=O)n1CC`, the AC50 in data set [3] is 14.1 µM (inconclusive).

`COc1ccc2[nH]cc(CCNc3cc(-c4ccc(C(=O)N(C)C)cc4)ncn3)c2c1`: the AC50 in data set [1] (read-out: AC50) was 39.8 µM (inconclusive).

As for `CCN(CC)C(=O)c1sc2[nH]c(=S)n(-c3ccccc3)c(=O)c2c1C`, the AC50 is 8.91 µM (inconclusive) in data set [4] and “inconclusive” in data set [1].

Turning to `c1ccc(NN(Cc2cnccn2)c2ccccc2)cc1`, the AC50 in data set [3] was 1 µM (inconclusive).

`CO[C@@H]1COC(=O)[C@H]2CCCN2C(=O)[C@@H](C)COC(=O)[C@H](COCc2ccccc2)NC(=O)C/C=C\[C@H]1C`: the AC50 in data set [3] is 3.98 µM (inconclusive).

Turning to `COC(=O)[C@@H]1CC[C@H](C)[C@@H](c2ccc(C)cc2)N1C(=O)c1ccc(/C=N\OC[C@@H]2O[C@H](c3ccccc3)C=C[C@@H]2Oc2ccc(OC)cc2)cc1`, the AC50 in data set [3] is 3.16 µM (inconclusive).

With `Cc1ccccc1C(=O)NC(NCc1ccco1)C(Cl)(Cl)Cl` (centres undefined), the AC50 in data set [4] is 0.0398 µM (inconclusive); in data set [2] it was 14.1 µM (inconclusive); in data set [3] it was 25.1 µM (inconclusive).

As to `CCC(=O)Nc1ccc(NC(=O)CSc2nnnn2-c2cccnc2)cc1C`, the AC50 result in data set [1] was “inconclusive”.

As for `N[C@@H](Cn1cc(I)c(=O)n(Cc2ccc(C(=O)O)cc2)c1=O)C(=O)O`, the figures for the AC50 in data set [1] (read-out: AC50) and in data set [2] were 39.8 µM (inconclusive) and 31.6 µM (inconclusive), respectively.

With `CSC(=N)N/N=C/c1ccc([N+](=O)[O-])cc1`, in data set [4], the AC50 is 10 µM (inconclusive).

With `C=C(C)[C@H]1CC=C(C)/C(=N/NC(=O)CNc2ccccc2OC)C1`, the AC50 in data set [1] (read-out: AC50) was 11.2 µM (inconclusive).

As for `O=C(CC(=O)N/N=C\c1c(Cl)cccc1Cl)NCc1ccccc1`, the AC50 in data set [2] is 14.1 µM (inconclusive); in data set [3], 12.6 µM (inconclusive).

Turning to `CCn1c(=O)[nH]c2ccccc21`, in data set [2], the AC50 was 31.6 µM (inconclusive).

`CCCCCCCCCCCCCCSCC(=O)O` [TETRADECYLTHIOACETIC ACID]: the AC50 in data set [4] is 39.8 µM (inconclusive).

The values are drawn from ChEMBL document CHEMBL1201862, “PubChem BioAssay data set” (2004).
